Assay results: patent US9399032B2, “Methods and compositions for treating degenerative and ischemic disorders” (The General Hospital Corporation, priority 2009, dated 2016)
Where a name gives a salt, the structure may show the parent alone.

Assay: Blood glucose levels in R6 mice
Assay type: in vivo

Cc1cccc(CN2CCN(C(c3ccccc3)c3ccc(Cl)cc3)CC2)c1 (racemic) [Meclizine, meclizine hydrochloride]
blood glucose levels: reduces blood glucose levels
